Data reported in patent US11524948B2, “Prodrugs of alpha-ketoglutarate, alpha-ketobutyrate, alpha-ketoisovalerate, and alpha-ketoisohexanoate, and uses thereof” (The Regents of the University of California, priority 2018, dated 2022).
“Also recorded” adds a separate entry of the source.

Columns and labels:
C57BL/6 mice [1] = assay: Hair regrowth in shaved C57BL/6 mice, topical application; assay type: in vivo, mouse
Protocol: The effects of the compounds on mouse models were evaluated. […] Mouse dorsal hair was shaved by trimmer on week 7 and MJX002 was dissolved in Transdermal Gel at 16 mM and applied on the dorsal skin every other day. Mice were monitored for the appearance of skin pigmentation, which signals the initiation of anagen. […] (FIG. 7)

AMPK signaling pathway = assay: Western blot of AMPK signaling in H9C2 rat cardiomyocytes; assay type: cell-based; details: H9C2 cells; for activation of AMPK signaling pathway (phosphorylation of AMPK targets ACC (S79) and ULK1 (S555)): western blot, FIGS. 2A, 2B; for activation of AMPK signaling pathway (phosphorylation of AMPK targets ACC (S79) and ULK1 (S555)) / time course of AMPK activation: 2F; for time course of AMPK activation: 15 min to 8 hr, FIGS. 2C, 2E
Protocol: (§1) H9C2 rat cardiomyocyte cells were grown in DMEM media (ATCC #30-2002) supplemented with 10% FBS. Stock solutions of MJX series compounds were prepared in DMSO, while the stock solution of α-ketobutyrate was prepared in dH2O. Cells were seeded in the afternoon at 70-80% confluency and the next morning treated with the indicated concentrations of compounds for the indicated times. Cells were then washed with ice-cold PBS and immediately lysed on ice with RIPA buffer. Lysates were clarified at 18,000 g at 4° C., the supernatants transferred to new tubes, mixed with […] of 5×SDS-PAGE loading buffer, and heated for 10 minutes at 70° C. Lysates were then separated by SDS-PAGE using 4-12% Bis-Tris gels (Life Technologies) and transferred to PVDF membranes (Millipore) for western blotting analysis. All antibodies were purchased from Cell Signaling.

mTORC1 = assay: Western blot of mTORC1 signaling in H9C2 rat cardiomyocytes; assay type: cell-based; details: H9C2 cells; for mTORC1 signaling (phosphorylation of mTORC1 targets S6K (T389), 4E-BP1 (S65), ULK1 (S757)): western blot, FIGS. 2A, 2B, 2C, 2F
Protocol: as §1

H9C2 Cells [2] = assay: [U-13C6]glucose tracing of metabolites in H9C2 cells (LC-MS); assay type: cell-based, rat; details: 24 h, FIG. 4
Protocol: To evaluate the metabolic pathways in use, H9C2 Cells were cultured with designated compounds and medium containing [U-^13C6]glucose for 24 h. Metabolites were extracted for LC-MS detection.

Caenorhabditis elegans = assay: Lifespan of N2 wildtype C. elegans on NGM treatment plates containing compound; assay type: in vivo; set-up: mean lifespan: unit not given here; details: for % increase (mean lifespan): vs DMSO; for effect on C. elegans lifespan: FIGS. 1A-1C, result in words
Protocol: The anti-aging effects of MJX001-MJX005 were tested in the nematode Caenorhabditis elegans. Worms of the N2 wildtype strain of C. elegans were age-synchronized by performing either a timed egg lay or an egg preparation (mix <100 gravid worms in 70 μl M9 buffer, 25 μl bleach and 5 μl 10 N NaOH). Once the worms reached day 1 of adulthood, they were picked onto NGM treatment plates containing 1.5% dimethyl sulfoxide (DMSO; Sigma D8418), 49.5 μM 5-fluoro-2′-deoxyuridine (FUDR, Sigma F0503), and either […] (Sigma K401) or one of the MJX series test compounds. All plates were adjusted to pH 6.0 (i.e., the same pH as the control plates) if necessary by the addition of NaOH. Once dry, the plates were seeded with OP50 E. coli as the C. elegans food source. […] Worms were moved to new plates every 4 days. All worms were maintained in a single humidified, temperature-controlled incubator at 20° C. Lifespan curves were generated and statistical analyses performed.

mTORC2 = assay: Western blot of mTORC2 signaling in H9C2 rat cardiomyocytes; assay type: cell-based; details: H9C2 cells, FIGS. 2C
Protocol: as §1

H9C2 Cells [3] = assay: Proliferation of H9C2 cells; assay type: cell-based, rat; details: FIGS. 6A & 6B
mTOR signaling = assay: Western blot of mTOR signaling in H9C2 rat cardiomyocytes; assay type: cell-based; details: H9C2 cells, 15 min to 8 hr, FIGS. 2C, 2E, 2F
Protocol: as §1

C57BL/6 mice [4] = details: stated as known; cited from earlier work
[5] = 4 mM, FIG. 1A experiment, DMSO control 11.7
[6] = 4 mM, FIG. 1B experiment, DMSO control 15.3
[7] = 4 mM, FIG. 8 experiment, DMSO control 15.3

Molecule	activation of AMPK signaling pathway (phosphorylation of AMPK targets ACC (S79) and ULK1 (S555)) (AMPK signaling pathway)	mTORC1 signaling (phosphorylation of mTORC1 targets S6K (T389), 4E-BP1 (S65), ULK1 (S757)) (mTORC1)	M2 citrate using [U-13C6]glucose as a tracer (H9C2 Cells [2])	mean lifespan (Caenorhabditis elegans; [5])	% increase (mean lifespan) (Caenorhabditis elegans; 4 mM, FIG. 1A experiment) [%]	effect on C. elegans lifespan (Caenorhabditis elegans)	time course of AMPK activation (AMPK signaling pathway)	mean lifespan (Caenorhabditis elegans; [6])	% increase (mean lifespan) (Caenorhabditis elegans; 4 mM, FIG. 1B experiment) [%]	time course of inhibition of mTOR signaling (mTOR signaling)	mean lifespan (Caenorhabditis elegans; [7])	% increase (mean lifespan) (Caenorhabditis elegans; 4 mM, FIG. 8 experiment) [%]	further results
CCOC(=O)C(CC)(OCC)OC(C)=O (stereo not shown) [MJX002]	activate the AMPK signaling pathway	no significant effect	decreased M2 citrate	16.4	40.0	dose-dependent increases in lifespan							hair regrowth (C57BL/6 mice [1]; 6 week old C57BL/6 mice, 16 mM in Transdermal Gel on dorsal skin every other day): stimulates hair regrowth; skin pigmentation and hair growth (C57BL/6 mice [1]; C57BL/6 mice, 16 mM topical every other day, after 40 days, FIG. 7): accelerated pigmentation and hair growth; mean lifespan (Caenorhabditis elegans; 100 μM, FIG. 1A experiment, DMSO control 11.7): 11.9; % increase (mean lifespan) (Caenorhabditis elegans; 100 μM, FIG. 1A experiment): 1.9%; mean lifespan (Caenorhabditis elegans; 300 μM, FIG. 1A experiment, DMSO control 11.7): 13.2; % increase (mean lifespan) (Caenorhabditis elegans; 300 μM, FIG. 1A experiment): 13.0%; mean lifespan (Caenorhabditis elegans; 1 mM, FIG. 1A experiment, DMSO control 11.7): 12.2; % increase (mean lifespan) (Caenorhabditis elegans; 1 mM, FIG. 1A experiment): 4.2%
C/C=c1\oc(=O)/c(=C/C)oc1=O [MJX004]	activate the AMPK pathway	inhibited mTORC1 signaling	decreased M2 citrate			dose-dependent increases in lifespan	less potent but more prolonged	21.1	38.0	less potent but more prolonged; also recorded: more prolonged effect on mTOR signaling			time course of inhibition of mTORC2 (decreased phosphorylation of Akt (S473)) (mTORC2; 2E): strongest after just 15 and 30 minutes treatment, but recovered to normal levels by 2 hr and beyond; activation of AMPK (AMPK signaling pathway; at 4 hr, FIG. 2E): strong activation of AMPK; inhibition of mTORC1 (mTORC1; at 4 and 8 hr, FIG. 2E): sustained inhibition of mTORC1; mean lifespan (Caenorhabditis elegans; 1 mM, FIG. 1B experiment, DMSO control 15.3): 19.7; % increase (mean lifespan) (Caenorhabditis elegans; 1 mM, FIG. 1B experiment): 28.7%; mean lifespan (Caenorhabditis elegans; 2 mM, FIG. 1B experiment, DMSO control 15.3): 20.0; % increase (mean lifespan) (Caenorhabditis elegans; 2 mM, FIG. 1B experiment): 30.9%; effect on proliferation (inhibition), rank order (H9C2 Cells [3]): strongest effect on proliferation
C/C=C1\OC(CCC(=O)OCC)(C(=O)OCC)OC1=O (stereo not shown) [MJX006]	rapidly promote AMPK activity	inhibit mTORC1 and mTORC2 signaling					highest at 15 and 30 minutes, is weaker but still evident at 1 hour, and has largely returned to baseline by 2 hours			exhibited similar kinetics; also recorded: only inhibited mTOR signaling transiently	17.4	13.9	mTORC2 activity (phosphorylation of Akt (S473)) (mTORC2; 2F): inhibit mTORC1 and mTORC2 signaling; mean lifespan (Caenorhabditis elegans; 1 mM, FIG. 8 experiment, DMSO control 15.3): 16.2; % increase (mean lifespan) (Caenorhabditis elegans; 1 mM, FIG. 8 experiment): 6.3%; mean lifespan (Caenorhabditis elegans; 2 mM, FIG. 8 experiment, DMSO control 15.3): 19.0; % increase (mean lifespan) (Caenorhabditis elegans; 2 mM, FIG. 8 experiment): 24.2%; N2 C. elegans lifespan (Caenorhabditis elegans; all three tested doses (1, 2, 4 mM), FIG. 8, result in words): extended significantly
α-ketobutyric acid (2-oxobutanoic acid) [aKB, reference compound]				17.7	51.0			20.4	33.3		19.1	24.6	mean lifespan (Caenorhabditis elegans; 4 mM, FIG. 1C experiment, DMSO control 14.8): 19.7; % increase (mean lifespan) (Caenorhabditis elegans; 4 mM, FIG. 1C experiment): 33.3%; hair loss in old C57BL/6 mice (C57BL/6 mice [4]): prevents hair loss; hair regrowth in mice (C57BL/6 mice [4]): stimulates hair regrowth
